Assay results taken from PMC2713251, “Discovery of novel inhibitors of Streptococcus pneumoniae based on the virtual screening with the homology-modeled structure of histidine kinase (VicK)” (BMC Microbiology, 2009).

These compounds were tested against T1, VicK' (cytoplasmic HisKA and HATPase_c domains of histidine kinase VicK) (Streptococcus pneumoniae, UniProt A0A0H2ZNH9) (assay: Kinase-Glo luminescent assay of residual ATP (ATPase / autophosphorylation)). Conditions: read-out: IC50 (μM) for VicK' protein.
T1 construct: gene walK
T1 sequence (A0A0H2ZNH9 201-449): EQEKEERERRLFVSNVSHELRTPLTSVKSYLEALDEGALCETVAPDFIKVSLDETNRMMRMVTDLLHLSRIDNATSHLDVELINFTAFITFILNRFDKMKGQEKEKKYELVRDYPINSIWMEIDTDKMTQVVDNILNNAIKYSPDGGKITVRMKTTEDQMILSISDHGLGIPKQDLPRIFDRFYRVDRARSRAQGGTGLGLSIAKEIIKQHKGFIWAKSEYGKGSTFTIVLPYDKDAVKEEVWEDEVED
Type: biochemical
Description: Kinase-Glo luminescent assay of residual ATP (ATPase / autophosphorylation) on VicK' (cytoplasmic HisKA and HATPase_c domains of histidine kinase VicK)
For `Nc1nonc1C(=O)NCCNCc1ccc(OCc2cccs2)cc1` [compound 1, Compound 1], the IC50 was 542 µM.
`COc1ccc(-c2ccc(CNCCNC(=O)c3nonc3N)o2)cc1Cl` [compound 2, Compound 2] showed an IC50 of 562 µM.
Work on `COc1ccc(CCNCc2ccc(-c3ccccc3)o2)cc1OC` [compound 3, Compound 3] yielded an IC50 of 503 µM.
With `Cn1nnnc1SCCCNCc1ccc(-c2ccccc2F)o1` [compound 4, Compound 4] the IC50 was > 1000 µM.
`Cn1nnnc1SCCCNCc1ccc(-c2ccc(F)c(Cl)c2)o1` [compound 5, Compound 5] was tested, and the IC50 was 598 µM.
Work on `c1ccc2[nH]c(Nc3ccc(-c4ccc(Nc5nc6ccccc6[nH]5)cc4)cc3)nc2c1` [compound 6, Compound 6] yielded an IC50 of 32.6 µM.
